Measurements published in patent publication US8071336B2, “Antibody-based therapeutics with enhanced ADCC activity” (Genzyme Corporation, priority 2005, dated 2011).

Columns and labels:
[1] = tested on: CHO cells expressing TEM mAb B; experiment: Batch cultures of CHO cells expressing TEM mAb B treated with kifunensine (shaker flasks); format: cell-based, Chinese hamster
Procedure: The production of TEM mAb B from batch cultures treated with various amounts of kifunensine or untreated was evaluated. CHO cells in shaker flasks were treated with 0, 0.5, 1, 1.5, or 2 μg/ml in a single or three additions (4 days apart) and cultured for 11 days. Cell viability (using trypan blue) and cell counts were assessed at least every other day.

[2] = tested on: CHO cell clone expressing TEM mAb A; experiment: Titration of kifunensine concentration, N-glycans of TEM mAb A (MALDI-TOF MS); format: cell-based, Chinese hamster; details: for glycan structures of the expressed antibody: 11 days
Procedure: To investigate the impact of mixed oligomannose and complex-type glycans on antibody function, cells expressing TEM mAb A were treated with various amounts of kifunensine. In the first experiment, a CHO cell clone expressing TEM mAb A was treated with 0, 4, 20, 100, 500 and 2500 ng/ml of kifunensine for 11 days. The medium was harvested, and the antibody was purified using a protein A column. Fractions containing protein peaks were pooled and dialyzed into PBS. A second titration experiment was performed with a narrower range of kifunensine concentration, specifically, from 20 to 100 ng/ml. After treatment for 11 days, 50 ml of medium from each treatment condition was harvested, and the antibody was purified. Peak-containing fractions were pooled, buffer-exchanged into PBS using Centricon® filters with repeated centrifugation. Aliquots of TEM mAb A antibody samples were applied to a 4-12% NuPAGE and stained with Coomassie blue to confirm purity. The amount of fucosylated and non-fucosylated glycans in antibodies from each kifunensine treatment in the second titration experiment was estimated by calculating the area of each individual glycan peak in MALDI-TOF MS spectra.

[3] = tested on: Hybridoma cells expressing TEM mAb A; experiment: N-glycans of TEM mAb A from inhibitor-treated hybridoma cells (MALDI-TOF MS); format: cell-based; details: 20 μg/ml mannostatin A, 0.5 mM NB-DNJ, or 2 μg/ml kifunensine at days 0 and 2
Procedure: Hybridoma cells expressing TEM mAb A, an antibody against a tumor vascular associated antigen, were grown in medium containing 1% fetal bovine serum with low IgG (Invitrogen Corp.), 5 μg/ml bovine insulin, 5 μg/ml human transferrin, 0.01 mM ethanolamine and 25 nM sodium selenite. Cells were treated once with the following inhibitors: 20 μg/ml mannostatin A, and 0.5 mM NB-DNJ for 4 days; and twice with 2 μg/ml kifunensine at days 0 and 2; or cultured without inhibitors (“control”).
N-linked glycans from antibodies purified as described in Example 1 were released with PNGase F. After filtration through 10 kDa filters, the filtrates were treated with Dowex AG-50 (H^+), AG501, and […] sequentially. Aliquots of samples were applied to a target, followed by sDHB matrix. The MALDI-TOF mass spectra were acquired using a Voyager-DE PRO Biospectrometry Workstation (Applied Biosystems, Foster City, Calif., USA) in the positive-ion and reflective mode.

[4] = after removal of most of the galactose residues; cited from earlier work
[5] = after removal of most of the galactose residues; cited from earlier work; remark: listed apart in the source

Compound: O=C1N[C@@H]2[C@@H](O)[C@@H](O)[C@H](O)[C@@H](CO)N2C1=O [kifunensine]
- Xvmax (viable cells at day of peak cell density) ([1]; 0.5 μg/ml kif sup. 3x (three additions), 11 days): 3.5 ×10^6 cells
- Xvmax (viable cells at day of peak cell density) ([1]; 0.5 μg/ml kif, single addition, 11 days): 3.5 ×10^6 cells
- Xvmax (viable cells at day of peak cell density) ([1]; 1 μg/ml kif sup. 3x (three additions), 11 days): 1.6 ×10^6 cells
- Xvmax (viable cells at day of peak cell density) ([1]; 1 μg/ml kif, single addition, 11 days): 2.7 ×10^6 cells
- Xvmax (viable cells at day of peak cell density) ([1]; 1.5 μg/ml kif sup. 3x (three additions), 11 days): 1.6 ×10^6 cells
- Xvmax (viable cells at day of peak cell density) ([1]; 1.5 μg/ml kif, single addition, 11 days): 3.8 ×10^6 cells
- Xvmax (viable cells at day of peak cell density) ([1]; 2 μg/ml kif sup. 3x (three additions), 11 days): 1.7 ×10^6 cells
- Xvmax (viable cells at day of peak cell density) ([1]; 2 μg/ml kif, single addition, 11 days): 2.1 ×10^6 cells
- cell viability (trypan blue) ([1]; FIG. 10A, 0 to 2 μg/ml kifunensine, 1 or 3 additions, 11 days): comparable
- cell density ([1]; FIG. 10B, kifunensine-treated vs untreated cells): lower
- glycan structures of the expressed antibody ([1]; single kifunensine treatment at 0.5 μg/ml): enough to result in the production of oligomannose-type structures
- cell density ([1]; three additions of kifunensine vs untreated control or single treatment): much lower cell density
- glycan structures of the expressed antibody ([2]; 20 ng/ml kifunensine): only a small amount of oligomannose structures (Man5/Man6)
- non-fucosylated glycans of the expressed antibody ([2]; 60 ng/ml or higher kifunensine, estimated from MALDI-TOF MS peak areas): > 80%
- glycan structures of the expressed antibody ([2]; 100 ng/ml kifunensine): complete oligomannose structures
- effect on glycosylation of the expressed antibody [3]: more effective in blocking the glycosylation to complex-type structures than NB-DNJ

Compound: Campath®: a humanized mAb IgG1
- complement lysis activity [4]: reduced complement lysis activity
- ADCC [5]: no effect on ADCC

Compound: CS[C@@H]1[C@@H](N)[C@@H](O)[C@@H](O)[C@H]1O [mannostatin A]
- effect on glycosylation of the expressed antibody [3]: No alteration in glycosylation

Compound: CCCCN1C[C@H](O)[C@@H](O)[C@H](O)[C@H]1CO [NB-DNJ, N-butyl-DNJ]
- effect on glycosylation of the expressed antibody [3]: significant amounts of Glc1Man9GlcGNAc2 (Man9Glc)
